Here are results for three molecules from patent US9243009B2, “Phosphate ester compound of hydroxy acid substituted phenol ester, preparation method and medical use thereof” (West China Hospital, Sichuan University, priority 2010, dated 2016).

For data set [1] the following is noted: in words, prior-art prodrug of WO200213810; cited from earlier work.
The conditions of data set [2]: in words, prior-art prodrug of WO200213810; cited from earlier work. The source holds these as a separate data set.
The test system of data set [3] is Kunming mice. To be noted: tail vein injection; for Median effective dose (ED50): disappearance of FRR; for disappearance time of FRR (onset time) / recovery time (recovery of FRR): during the determination of ED50; for anesthetic effect: in words. Here is the method: Median effective doses (ED50) of propofol hydroxybutyrate phosphate disodium salt and Diprivan™ were determined by the up-and-down method. In the test, the mice were injected with the drugs through the tail veins, with the disappearance of the forepaw righting reflex (FRR) of the mice as a judgment index of the end point of anesthesia; the recovery of FRR of the mice as an index of recovery from anesthesia.
In the test, the mice were injected with the drugs through the tail veins, with the disappearance of the forepaw righting reflex (FRR) of the mice as a judgment index of the end point of anesthesia; the recovery of FRR of the mice as an index of recovery from anesthesia.

On to `CC(C)c1cccc(C(C)C)c1OC(=O)CCC(=O)[O-].[Na+]` [propofol succinic acid monoester sodium salt], for which the “stability in aqueous solution” value in data set [1] is given as “unstable in aqueous solution”. For the same molecule, in data set [2], the water solubility result is on record as “high water-solubility”.

“propofol w-hydroxybutyrate phosphate disodium salt”: in data set [3], the “Median effective dose (ED50)” value is reported as 130 mg/kg; the “disappearance time of FRR (onset time)” value came out at 150.6 ± 42.1 s; the “recovery time (recovery of FRR)” value stood at 480.6 ± 124.3 s; the anesthetic effect entry is “definite and reversible anesthetic effect”.

Take “propofol w-hydroxyvalerate phosphate disodium salt”: in data set [3], the “Median effective dose (ED50)” value was determined as 152 mg/kg; the “disappearance time of FRR (onset time)” value is 180.8 ± 45.6 s; the “recovery time (recovery of FRR)” value amounted to 500.1 ± 114.6 s; the anesthetic effect entry was “definite and reversible anesthetic effect”.
